molecular target: T1, human CXCR3 (Homo sapiens, UniProt P49682); assay: [35S]GTPγS exchange assay, CXCR3 receptor inhibition (hI-TAC-induced GTPγS-binding); assay type: biochemical; conditions: -log IC50 (molar) inhibiting 50% of specific I-TAC-induced GTPγS-binding; membranes of human CXCR3-transfected CHO cells
T1 construct: expressed in transfected cells; host or cells: CHO cells (membrane preparation)
T1 sequence (P49682 1-368): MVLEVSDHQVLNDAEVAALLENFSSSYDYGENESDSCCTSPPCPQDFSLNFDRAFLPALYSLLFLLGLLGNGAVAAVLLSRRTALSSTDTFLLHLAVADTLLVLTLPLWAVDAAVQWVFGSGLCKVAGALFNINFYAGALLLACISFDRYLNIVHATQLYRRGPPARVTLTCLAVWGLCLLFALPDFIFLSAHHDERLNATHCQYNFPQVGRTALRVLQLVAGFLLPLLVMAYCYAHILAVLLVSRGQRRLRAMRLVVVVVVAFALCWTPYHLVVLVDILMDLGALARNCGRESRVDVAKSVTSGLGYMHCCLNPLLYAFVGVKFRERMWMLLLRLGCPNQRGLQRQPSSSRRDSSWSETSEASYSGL
Method: CXCR3 Receptor Inhibition was Examined in a [^35S]GTPγS Exchange Assay
The exchange of guanosine 5′-[^35S]triphosphate was measured on membranes of human CXCR3-transfected CHO cells. [^35S]GTPγS exchange assays were performed in 96-well plates with 10 μg of membrane protein/well using basic flashplates (Perkin Elmer). Compounds were dissolved in DMSO and diluted with incubation buffer to yield required concentrations with 9% DMSO. Incubation buffer is composed of 20 mM HEPES, 100 mM NaCl, 3 μM GDP and 1 mM MgCl2, pH 7.4. […] Compound, membranes, hI-TAC (interferon-inducible T-cell alpha chemoattractant) and [^35S]GTPγS were added in a total volume of 200 μl. First, 20 μl of the appropriate compound dilution and 140 μl membranes from CXCR3-CHO cells were dissolved in membrane incubation buffer and pre-incubated for 30 minutes at 30° C. Then, 20 μl of hI-TAC dissolved at 30 nM in incubation buffer was added to the membranes and the mixture containing 1% of DMSO was incubated for another 30 minutes at 30° C. […] After 1 minute shaking and 30 minutes incubation at 30° C., flashplates were centrifuged for 5 minutes at 2500 rpm at room temperature. Flashplate bound radioactivity was determined by liquid scintillation counting. Basal GTPγS-binding was measured in 8 wells with membranes incubated in the same volume with 1% DMSO, without I-TAC. Maximal GTPγS-binding was measured in 8 wells with membranes incubated with 1% DMSO and 3 nM I-TAC. […] IC50 values were calculated using non-linear regression in Graphpad Prism.

SMILES | pIC50
O=C1CCC(c2ccncc2)(C2CCN(Cc3ccc(Br)cc3)CC2)C(=O)N1 (stereo not shown) [Compound 2] | 6.2
O=C1CCC(c2ccccc2)(C2CCN(Cc3ccc(Br)cc3)CC2)CN1 (stereo not shown) [Compound 5] | 6.3
O=C1CCC(c2cccc(C(=O)O)c2)(C2CCN(Cc3ccc(Br)cc3)CC2)C(=O)N1 (stereo not shown) [Compound 23] | 6.2
O=C1CCC(c2ccccn2)(C2CCN(Cc3ccc(Br)cc3)CC2)C(=O)N1 (stereo not shown) [Compound 30] | 6.3
CNC(=O)c1cccc(C2(C3CCN(Cc4ccc(Br)cc4)CC3)CCC(=O)NC2=O)c1 (stereo not shown) [Compound 32] | 5.5
NC(=O)c1cccc(C2(C3CCN(Cc4ccc(Br)cc4)CC3)CCC(=O)NC2=O)c1 (stereo not shown) [Compound 33] | 5.5
O=C1CCC(c2cccc(C(=O)N3CCOCC3)c2)(C2CCN(Cc3ccc(Br)cc3)CC2)C(=O)N1 (stereo not shown) [Compound 37] | 6.1
CSCN1C(=O)CCC(c2ccccc2)(C2CCN(Cc3ccc(Br)cc3)CC2)C1=O (stereo not shown) [Compound 38] | 6.0
O=C1CCC(c2cccc(O)c2)(C2CCN(Cc3ccc(Br)cc3)CC2)C(=O)N1 (stereo not shown) [Compound 39] | 6.0

same assay, conditions: -log IC50 (molar) inhibiting 50% of specific I-TAC-induced GTPγS-binding; membranes of human CXCR3-transfected CHO cells; read-out: pIC50 (converted)

SMILES | IC50 [nM]
O=C1CCC(c2ccc(F)cc2F)(C2CCN(Cc3ccc(Br)cc3)CC2)C(=O)N1 (racemic) [Compound 194] | 100
O=C1CCC(c2ccc(F)cc2F)(C2CCN(Cc3ccc(Cl)c(F)c3)CC2)C(=O)N1 (racemic) [Compound 202] | 251
O=C1CCC(c2ccccc2)(C2CCN(Cc3ccc(Br)cc3)CC2)C(=O)N1 (single isomer, unassigned) [Compound 14] | 631
CC(c1ccc(Br)cc1)N1CCC(C2(c3ccccc3)CCC(=O)NC2=O)CC1 (single isomer, unassigned) [Compound 17] | 2000
CC(c1ccc(Br)cc1)N1CCC(C2(c3ccccc3)CCC(=O)NC2=O)CC1 (single isomer, unassigned) [Compound 18] | 398
O=C1CCC(c2ccc(F)cc2F)(C2CCN(Cc3ccc(Br)cc3)CC2)C(=O)N1 (single isomer, unassigned) [Compound 166] | 63.1
CC(c1ccc(Br)cc1)N1CCC(C2(c3ccccc3)CCC(=O)NC2=O)CC1 (stereo not shown) [Compound 1] | 398
CC(c1ccc(Br)cc1)N1CCC(C2(c3ccc(F)cc3)CCC(=O)NC2=O)CC1 (stereo not shown) [Compound 3] | 200
O=C1CCC(c2cccnc2)(C2CCN(Cc3ccc(Cl)cc3)CC2)C(=O)N1 (stereo not shown) [Compound 4] | 794
COc1ccc(S(=O)(=O)O)cc1C1(C2CCN(Cc3ccc(Br)cc3)CC2)CCC(=O)NC1=O (stereo not shown) [Compound 6] | 158
O=C1CCC(c2ccccc2)(N2CCN(Cc3ccc(Br)cc3)CC2)C(=O)N1 (stereo not shown) [Compound 7] | 251
CC(c1ccc(Br)cc1)N1CCC(C2(c3ccccc3)CCCNC2=O)CC1 (stereo not shown) [Compound 11] | 794
O=C1CCC(c2ccc(F)cc2)(C2CCN(Cc3ccc(Br)cc3F)CC2)CN1 (stereo not shown) [Compound 15] | 398
O=C1CCC(c2ccccc2)(C2CCN(Cc3ccc(Br)c(F)c3)CC2)C(=O)N1 (stereo not shown) [Compound 16a] | 316
O=C1CCC(c2ccccc2)(C2CCN(Cc3ccc(Cl)cc3)CC2)C(=O)N1 (stereo not shown) [Compound 19] | 1260
O=C1CCC(c2ccccc2)(C2CCN(Cc3ccc(Cl)cc3)CC2)C(=O)N1 (stereo not shown) [Compound 20] | 794
O=C1CCC(c2cccc(C(=O)O)c2)(C2CCN(Cc3ccc(Cl)c(F)c3)CC2)C(=O)N1 (stereo not shown) [Compound 22] | 251
CC(=O)Nc1ccccc1C1(C2CCN(Cc3ccc(Br)cc3)CC2)CCC(=O)NC1=O (stereo not shown) [Compound 24] | 1000
O=C1CCC(c2ccc(F)cc2)(C2CCN(Cc3ccc(Cl)c(F)c3)CC2)C(=O)N1 (stereo not shown) [Compound 26] | 200
O=C1CCC(c2ccccc2)(N2CCN(Cc3ccc(Cl)c(F)c3)CC2)C(=O)N1 (stereo not shown) [Compound 27] | 2510
O=C1CCC(c2ccccc2)(C2CCN(Cc3ccc4ccccc4c3)CC2)C(=O)N1 (stereo not shown) [Compound 28] | 3980
O=C1CCC(c2ccccn2)(C2CCN(Cc3ccc(Cl)c(F)c3)CC2)C(=O)N1 (stereo not shown) [Compound 29] | 794
O=C1CCC(c2ccccc2)(C2CCN(Cc3ccc(Cl)c(F)c3)CC2)C(=O)N1 (stereo not shown) [Compound 31] | 200
CN1CCN(C(=O)c2cccc(C3(C4CCN(Cc5ccc(Br)cc5)CC4)CCC(=O)NC3=O)c2)CC1 (stereo not shown) [Compound 34] | 1260
COC(=O)c1ccc(CN2CCC(C3(c4ccccc4)CCC(=O)NC3=O)CC2)cc1 (stereo not shown) [Compound 36] | 1260

SMILES | IC50 [nM]
O=C1CCC(c2ccccc2)(C2CCN(Cc3ccc(F)cc3)CC2)C(=O)N1 (stereo not shown) [Compound 43] | 3160
O=C1CCC(c2ccccc2)(C2CCN(Cc3ccc(F)cc3)CC2)C(=O)N1 (stereo not shown) [Compound 44] | 5010
O=C1CCC(c2ccccc2)(C2CCN(Cc3ccc(F)cc3)CC2)C(=O)N1 (stereo not shown) [Compound 45] | 3980
COc1cc(F)ccc1CN1CCC(C2(c3ccccc3)CCC(=O)NC2=O)CC1 (stereo not shown) [Compound 46] | 3980
O=C1CCC(c2ccccc2)(C2CCN(Cc3ccc(F)c(F)c3)CC2)C(=O)N1 (stereo not shown) [Compound 47] | 2000
O=C1CCC(c2ccc(F)cc2)(C2CCN(Cc3ccc(F)c(F)c3)CC2)C(=O)N1 (stereo not shown) [Compound 49] | 3980
O=C1CCC(c2ccccc2)(C2CCN(Cc3ccc(F)c(F)c3F)CC2)C(=O)N1 (stereo not shown) [Compound 50] | 1580
O=C1CCC(c2cccc(Cl)c2)(C2CCN(Cc3ccc(F)c(F)c3F)CC2)C(=O)N1 (stereo not shown) [Compound 51] | 2510
Cc1cccc(C2(C3CCN(Cc4ccc(F)c(F)c4F)CC3)CCC(=O)NC2=O)c1 (stereo not shown) [Compound 52] | 1260
COc1cccc(C2(C3CCN(Cc4ccc(F)c(F)c4F)CC3)CCC(=O)NC2=O)c1 (stereo not shown) [Compound 53] | 2000
O=C1CCC(c2ccc(F)cc2)(C2CCN(Cc3ccc(F)c(F)c3F)CC2)C(=O)N1 (stereo not shown) [Compound 54] | 1260
O=C1CCC(c2ccccc2)(C2CCN(Cc3ccc(F)c(Cl)c3)CC2)C(=O)N1 (stereo not shown) [Compound 55] | 3160
O=C1CCC(c2ccc(F)cc2)(C2CCN(Cc3ccc(F)c(Cl)c3)CC2)C(=O)N1 (stereo not shown) [Compound 56] | 5010
O=C1CCC(c2ccccc2)(C2CCN(Cc3ccc(F)c(Br)c3)CC2)C(=O)N1 (stereo not shown) [Compound 57] | 3980
O=C1CCC(c2ccc(F)cc2)(C2CCN(Cc3ccc(F)c(Br)c3)CC2)C(=O)N1 (stereo not shown) [Compound 58] | 7940
Cc1cc(CN2CCC(C3(c4ccccc4)CCC(=O)NC3=O)CC2)ccc1F (stereo not shown) [Compound 59] | 1260
COc1cc(CN2CCC(C3(c4ccccc4)CCC(=O)NC3=O)CC2)ccc1F (stereo not shown) [Compound 60] | 3160
O=C1CCC(c2ccccc2)(C2CCN(Cc3ccc(Cl)cc3)CC2)C(=O)N1 (stereo not shown) [Compound 61] | 1000
O=C1CCC(c2ccccc2)(C2CCN(Cc3ccc(Cl)cc3)CC2)C(=O)N1 (stereo not shown) [Compound 62] | 794
O=C1CCC(c2cccc(Cl)c2)(C2CCN(Cc3ccc(Cl)cc3)CC2)C(=O)N1 (stereo not shown) [Compound 63] | 2000
Cc1cccc(C2(C3CCN(Cc4ccc(Cl)cc4)CC3)CCC(=O)NC2=O)c1 (stereo not shown) [Compound 64] | 2000
O=C1CCC(c2cccc(C(=O)O)c2)(C2CCN(Cc3ccc(Cl)cc3)CC2)C(=O)N1 (stereo not shown) [Compound 66] | 794
COc1cccc(C2(C3CCN(Cc4ccc(Cl)cc4)CC3)CCC(=O)NC2=O)c1 (stereo not shown) [Compound 67] | 1000
O=C1CCC(c2ccc(F)cc2)(C2CCN(Cc3ccc(Cl)cc3)CC2)C(=O)N1 (stereo not shown) [Compound 68] | 794

same assay, conditions: pIC50, -log IC50 (molar) inhibiting 50% of specific I-TAC-induced GTPγS-binding; membranes of human CXCR3-transfected CHO cells

SMILES | IC50 [nM]
O=C1CCC(c2ccccc2)(C2CCN(Cc3ccc(Br)cc3)CC2)C(=O)N1 (single isomer, unassigned) [Compound 13] | 316
COc1cccc(C2(C3CCN(Cc4ccc(Br)cc4)CC3)CCC(=O)NC2=O)c1 (stereo not shown) [Compound 8] | 1580
O=C1CCC(c2ccccc2)(C2CCN(Cc3ccc(Br)cc3)CC2)C(=O)N1 (stereo not shown) [Compound 10] | 316
Nc1cccc(C2(C3CCN(Cc4ccc(Br)cc4)CC3)CCC(=O)NC2=O)c1 (stereo not shown) [Compound 35] | 316
O=C1CCC(c2cccc(C(F)(F)F)c2)(C2CCN(Cc3ccc(Cl)cc3)CC2)C(=O)N1 (stereo not shown) [Compound 65] | 2510

same assay, conditions: read-out: pIC50 (converted)

SMILES | IC50 [nM]
Cc1cccc(C2(C3CCN(Cc4ccc(Br)cc4)CC3)CCC(=O)NC2=O)c1 (stereo not shown) [Compound 9] | 2000
